Source: patent US7129275B2, “Compositions for treating acne comprising phytandiol amine” (Coreana Cosmetics Co., Ltd., priority 2001, dated 2006)

Experiments:
Assay in all cases: Minimum inhibitory concentration on reinforced clostridial agar
Conditions in all cases: 3 days at 35° C., anaerobic, complete growth inhibition
[1] = test system: P. acnes ATCC 6919; assay type: cell-based, Propionibacterium acnes
Protocol: (§1) To evaluate an antimicrobial activity of the phytandiol amine of this invention against acne pathogen, the minimum inhibitory concentration (hereinafter referred to as “MIC”) of the samples shown in Table 1 was measured as follows: The sample to be tested was added to reinforced clostridial agar medium (available from Difco Co.) in the amount of 0.001–0.1%, followed by solidification of the medium. The suspension of acne pathogenic bacteria found in Table 1 was streaked on the surface of the medium and the medium was incubated for 3 days at 35° C. under anaerobic condition.

[2] = test system: P. acne ATCC 11828; assay type: cell-based, Propionibacterium acnes
Protocol: as §1

[3] = test system: P. avidum ATCC 25577; assay type: cell-based, Propionibacterium avidum
Protocol: as §1

MIC [1] [%]	MIC [2] [%]	MIC [3] [%]	SMILES
0.1	0.1	0.1	O=C(OOC(=O)c1ccccc1)c1ccccc1 [Benzoyl peroxide]
0.02	0.02	0.02	CC[C@H]1OC(=O)[C@H](C)[C@@H](O[C@H]2C[C@@](C)(OC)[C@@H](O)[C@H](C)O2)[C@H](C)[C@@H](O[C@@H]2O[C@H](C)C[C@H](N(C)C)[C@H]2O)[C@](C)(O)C[C@@H](C)C(=O)[C@H](C)[C@@H](O)[C@]1(C)O [Erythromycin]
